Patent US20240009277A1, “POLYPEPTIDES FOR USE IN THE TREATMENT AND PREVENTION OF NEURODEGENERATIVE DISEASES” (IMMUNE SYSTEM KEY LTD., priority 2020, published 2024)
Non-standard residues stand in square brackets, D forms with d. Residues, ends and D or L forms follow the SMILES beside them. No end group written: not given here.

Assay: Blood Brain Barrier (BBB) penetration assay, ELISA of spinal fluid after I.P. injection
Type: in vivo, mice
Settings: for level of the polypeptide in mice brain following injection: I.P. 60 mg/kg in 5% mannitol, spinal fluid collected after 1 hour, ELISA, compared to 5% mannitol control
Method: ICR female mice having initial body weight of 20-22 grams were used (Envigo).
A control group of 6 mice was injected intraperitoneally (I.P.) with 5% mannitol solution and another group of 6 mice was injected I.P. with the polypeptide dTCApFs (also termed herein Nerofe, at 60 mg/kg) in a 5% mannitol solution. Spinal fluid was collected after the injection (1 hour) and subjected to ELISA analysis of dTCApFs (Nerofe), as detailed below.
Mice were injected with 60 mg/kg D-amino acid dTCApFs (Nerofe), and cerebrospinal fluid (about 10 μl) and serum were collected after 1 hr, and frozen. A calibration curve was prepared by serial dilutions of the polypeptide in PBS (Biological industries, 02-023-5A) as noted in table 1 below.
Next, the cerebrospinal samples were thawed and kept on ice, and then diluted in 220 μl PBS. Sample loading was next performed by loading 100 μl duplicates of each sample and of the standard in a Maxisorp 96-wells plate (NUNC, F96 Maxisorp, 442404). The plate was sealed and incubated at 4° C. overnight with gentle shaking. The plate was washed by removing the liquid and washing the plate four (4) times using a multi-pipette or an automated washer with 300 μl 0.05% TW-20 (Amresco, 0777-1L) in PBS. The samples were blocked by diluting 5% BSA (MP biomedicals, 160069) in PBS. Then, 300 μl of the blocking buffer were loaded in each well and the plate was incubated at room temperature (R.T.) for 1 hour with gentle shaking. The Plates were washed again, as described above.
Detection was performed by diluting the first antibody according to table 1 below in diluent (0.05% TW-20, 0.1% BSA in PBS). Then, 100 μl of detection antibody were loaded into each well and the plate was incubated at R.T. for 2:00 hours with gentle shaking. The plate was washed again as detailed above. […]
Development was performed by adding 100 μl TMB (Milipore, ES001-500ML) to each well, and waiting for blue color development, then adding 100 μl 2N H2SO4 (Frutarom, 5552540). Plate reading was performed in a microplate reader, by checking the wells absorbance at 450 nm. […]

Compound | level of the polypeptide in mice brain following injection | penetration ability of the BBB (mice, I.P. 60 mg/kg)
WWTFFLPSTLWERK [L-amino acid polypeptide, Trp Trp Thr Phe Phe Leu Pro Ser Thr Leu Trp Glu Arg Lys, reference compound] | changed insignificantly | –
CC(C)C[C@@H](NC(=O)[C@H](NC(=O)[C@@H](CO)NC(=O)[C@H]1CCCN1C(=O)[C@@H](CC(C)C)NC(=O)[C@@H](Cc1ccccc1)NC(=O)[C@@H](Cc1ccccc1)NC(=O)[C@H](NC(=O)[C@@H](Cc1c[nH]c2ccccc12)NC(=O)[C@H](N)Cc1c[nH]c2ccccc12)[C@H](C)O)[C@H](C)O)C(=O)N[C@H](Cc1c[nH]c2ccccc12)C(=O)N[C@H](CCC(=O)O)C(=O)N[C@H](CCCNC(=N)N)C(=O)N[C@H](CCCCN)C(=O)O [dTCApFs, Trp Trp Thr Phe Phe Leu Pro Ser Thr Leu Trp Glu Arg Lys] (H-[dW][dW][dT][dF][dF][dL][dP][dS][dT][dL][dW][dE][dR][dK]-OH; N-terminus and C-terminus assumed) | dramatically increased | good penetration ability of the BBB
